Source: ChEMBL document CHEMBL1909046, “DrugMatrix in vitro pharmacology data”

Experiments:
[1] = biological target: Melanocortin receptor 4 (Homo sapiens, UniProt P32245); type: cell membranes, HEK293, Membrane; conditions: hek293; further: in other assays of this panel Not Active means under 50% inhibition at 10 µM
[2] = DRUGMATRIX: Glutamate, Kainate radioligand binding (ligand: [3H] Kainic acid); type: cell membranes, Rattus norvegicus, Wistar, Brain, Membrane; conditions: Not Active = under 50% inhibition at 10 µM
[3] = biological target: T1, Cholecystokinin receptor type A (Homo sapiens, UniProt P32238); type: cell membranes, Membrane; conditions: 1321-n1; further: in other assays of this panel Not Active means under 50% inhibition at 10 µM
T1 sequence (P32238 whole entry): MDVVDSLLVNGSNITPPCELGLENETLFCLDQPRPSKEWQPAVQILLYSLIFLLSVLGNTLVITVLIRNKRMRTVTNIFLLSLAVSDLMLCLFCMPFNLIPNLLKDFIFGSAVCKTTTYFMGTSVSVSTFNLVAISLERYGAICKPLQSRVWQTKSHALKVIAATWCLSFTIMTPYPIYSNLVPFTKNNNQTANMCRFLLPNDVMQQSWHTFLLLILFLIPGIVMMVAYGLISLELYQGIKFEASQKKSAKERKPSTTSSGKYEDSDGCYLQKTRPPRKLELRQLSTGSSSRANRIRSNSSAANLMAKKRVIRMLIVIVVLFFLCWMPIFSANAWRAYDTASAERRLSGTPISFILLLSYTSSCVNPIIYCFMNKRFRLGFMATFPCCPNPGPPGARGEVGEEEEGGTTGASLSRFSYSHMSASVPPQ

[4] = biological target: 5-hydroxytryptamine receptor 6 (Homo sapiens, UniProt P50406); type: cell membranes, HeLa, Membrane; further: in other assays of this panel Not Active means under 50% inhibition at 10 µM
[5] = biological target: T2, Type-2 angiotensin II receptor (Homo sapiens, UniProt P50052); type: cell-based; conditions: cho-k1; further: in other assays of this panel Not Active means under 50% inhibition at 10 µM
T2 sequence (P50052 whole entry): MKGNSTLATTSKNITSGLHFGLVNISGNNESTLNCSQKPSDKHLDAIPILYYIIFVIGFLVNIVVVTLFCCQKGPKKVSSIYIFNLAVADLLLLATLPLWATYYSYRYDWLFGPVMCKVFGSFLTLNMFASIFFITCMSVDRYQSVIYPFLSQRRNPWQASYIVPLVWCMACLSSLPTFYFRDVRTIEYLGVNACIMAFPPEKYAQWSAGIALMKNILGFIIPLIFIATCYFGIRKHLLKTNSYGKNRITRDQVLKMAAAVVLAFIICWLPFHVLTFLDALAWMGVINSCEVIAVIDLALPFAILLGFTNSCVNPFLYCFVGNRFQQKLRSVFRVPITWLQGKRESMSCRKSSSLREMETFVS

[6] = biological target: 5-hydroxytryptamine receptor 4 (Cavia porcellus, UniProt O70528); type: cell membranes, Dunkin-Hartley, Striatum, Membrane; further: in other assays of this panel Not Active means under 50% inhibition at 10 µM
[7] = biological target: Cytochrome P450 3A4 (Homo sapiens, UniProt P08684); conditions: bti-tn-5b1-4; further: in other assays of this panel Not Active means under 50% inhibition at 10 µM
Sequence of Cytochrome P450 3A4 (P08684 whole entry): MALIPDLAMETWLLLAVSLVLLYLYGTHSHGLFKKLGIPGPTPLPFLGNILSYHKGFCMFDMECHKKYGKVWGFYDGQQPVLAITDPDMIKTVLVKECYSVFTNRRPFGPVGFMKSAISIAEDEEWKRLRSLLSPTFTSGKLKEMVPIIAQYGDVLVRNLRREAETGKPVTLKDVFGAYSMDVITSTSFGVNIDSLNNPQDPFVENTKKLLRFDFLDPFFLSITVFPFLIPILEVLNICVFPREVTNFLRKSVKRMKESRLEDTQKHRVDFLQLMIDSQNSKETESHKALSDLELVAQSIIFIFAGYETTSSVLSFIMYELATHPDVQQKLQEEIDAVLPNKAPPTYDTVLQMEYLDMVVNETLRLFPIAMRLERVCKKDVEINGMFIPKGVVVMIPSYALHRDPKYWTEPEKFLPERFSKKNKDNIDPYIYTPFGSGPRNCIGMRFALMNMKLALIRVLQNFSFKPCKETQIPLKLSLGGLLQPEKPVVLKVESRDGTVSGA

Sequence of Melanocortin receptor 4 (P32245 whole entry): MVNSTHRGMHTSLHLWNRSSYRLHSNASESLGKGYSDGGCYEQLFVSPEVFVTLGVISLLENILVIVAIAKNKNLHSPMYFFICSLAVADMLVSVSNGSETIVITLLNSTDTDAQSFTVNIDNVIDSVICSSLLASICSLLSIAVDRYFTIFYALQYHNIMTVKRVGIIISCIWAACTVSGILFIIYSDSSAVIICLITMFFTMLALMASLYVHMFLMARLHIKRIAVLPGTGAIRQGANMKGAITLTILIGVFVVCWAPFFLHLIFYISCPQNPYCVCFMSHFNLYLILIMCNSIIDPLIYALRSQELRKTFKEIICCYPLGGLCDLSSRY
Sequence of 5-hydroxytryptamine receptor 6 (P50406 whole entry): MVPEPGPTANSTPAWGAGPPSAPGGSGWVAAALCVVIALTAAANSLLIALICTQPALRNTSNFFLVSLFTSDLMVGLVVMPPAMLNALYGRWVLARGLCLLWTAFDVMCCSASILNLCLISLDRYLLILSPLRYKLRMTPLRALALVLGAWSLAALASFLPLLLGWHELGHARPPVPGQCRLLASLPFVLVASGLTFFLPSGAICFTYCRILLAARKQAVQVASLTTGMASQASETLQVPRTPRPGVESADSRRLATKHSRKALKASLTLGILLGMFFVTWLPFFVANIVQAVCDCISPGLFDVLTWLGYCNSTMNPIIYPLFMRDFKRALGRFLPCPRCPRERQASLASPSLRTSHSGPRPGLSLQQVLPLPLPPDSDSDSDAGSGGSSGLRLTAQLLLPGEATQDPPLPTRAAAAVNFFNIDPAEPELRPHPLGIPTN
Sequence of 5-hydroxytryptamine receptor 4 (O70528 whole entry): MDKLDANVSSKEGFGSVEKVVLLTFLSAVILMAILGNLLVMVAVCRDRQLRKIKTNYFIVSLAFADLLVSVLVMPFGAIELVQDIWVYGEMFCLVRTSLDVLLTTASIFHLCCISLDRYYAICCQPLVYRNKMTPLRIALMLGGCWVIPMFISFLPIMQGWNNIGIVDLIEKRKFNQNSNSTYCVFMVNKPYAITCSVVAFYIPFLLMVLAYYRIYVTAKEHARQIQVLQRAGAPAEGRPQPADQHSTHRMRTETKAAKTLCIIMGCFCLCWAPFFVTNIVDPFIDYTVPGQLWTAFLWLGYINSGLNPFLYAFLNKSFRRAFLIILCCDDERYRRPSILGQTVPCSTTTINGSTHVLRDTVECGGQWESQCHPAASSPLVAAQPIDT

| Compound | IC50 [1] | IC50 [2] | Ki [2] | IC50 [3] | IC50 ([4]; hela) | IC50 [5] | IC50 [6] | IC50 [7] | Ki [7] | IC50 ([4]; read-out: IC50) [nM] | Ki ([4]; read-out: Ki) [nM] | IC50 ([6]; read-out: IC50) [µM] | Ki ([6]; read-out: Ki) [nM] | Ki [1] | Ki [3] | Ki ([4]; hela) | Ki [5] | Ki [6] |
| --- | --- | --- | --- | --- | --- | --- | --- | --- | --- | --- | --- | --- | --- | --- | --- | --- | --- | --- |
| c1ccc([C@H]2CN3CCSC3=N2)cc1 [LEVAMISOLE] | Not Active | Not Active | Not Active | Not Active | Not Active | Not Active | Not Active | Not Active | Not Active | – | – | – | – | – | – | – | – | – |
| N[C@@H](Cc1ccc(O)c(O)c1)C(=O)O [LEVODOPA] | Not Active | Not Active | Not Active | Not Active | Not Active | Not Active | Not Active | Not Active | Not Active | – | – | – | – | – | – | – | – | – |
| O=NN(CCCl)C(=O)NC1CCCCC1 [LOMUSTINE] | Not Active | Not Active | Not Active | Not Active | Not Active | Not Active | Not Active | Not Active | Not Active | – | – | – | – | – | – | – | – | – |
| CC[C@@H](CO)NC(=O)[C@@H]1C=C2c3cccc4[nH]cc(c34)C[C@H]2N(C)C1 [METHYLERGONOVINE] | Not Active | Not Active | Not Active | Not Active | – | Not Active | Not Active | Not Active | Not Active | 2.54 | 1.18 | – | – | – | – | – | – | – |
| COc1nc(C)nc(Cl)c1NC1=NCCN1 [MOXONIDINE] | Not Active | Not Active | Not Active | Not Active | Not Active | Not Active | Not Active | Not Active | Not Active | – | – | – | – | – | – | – | – | – |
| COc1c(C)c2c(c(O)c1C/C=C(\C)CCC(=O)O)C(=O)OC2 [MYCOPHENOLIC ACID] | Not Active | Not Active | Not Active | Not Active | Not Active | Not Active | Not Active | Not Active | Not Active | – | – | – | – | – | – | – | – | – |
| O=c1ncn2nc(Sc3ccc(F)cc3F)ccc2c1-c1c(Cl)cccc1Cl [NEFLAMAPIMOD] | Not Active | Not Active | Not Active | Not Active | Not Active | Not Active | Not Active | Not Active | Not Active | – | – | – | – | – | – | – | – | – |
| C=CCC1(C(C)CCC)C(=O)NC(=O)NC1=O (stereo not drawn) [SECOBARBITAL] | Not Active | Not Active | Not Active | Not Active | Not Active | Not Active | Not Active | Not Active | Not Active | – | – | – | – | – | – | – | – | – |
| C[C@@H]1CN(c2c(F)c(N)c3c(=O)c(C(=O)O)cn(C4CC4)c3c2F)C[C@H](C)N1 [SPARFLOXACIN] | Not Active | Not Active | Not Active | Not Active | Not Active | Not Active | Not Active | Not Active | Not Active | – | – | – | – | – | – | – | – | – |
| Cc1noc(NS(=O)(=O)c2ccc(N)cc2)c1C [SULFISOXAZOLE] | Not Active | Not Active | Not Active | Not Active | Not Active | Not Active | Not Active | Not Active | Not Active | – | – | – | – | – | – | – | – | – |
| CSc1ccc(/C=C2/C(C)=C(CC(=O)O)c3cc(F)ccc32)cc1 [SULINDAC SULFIDE] | Not Active | Not Active | Not Active | Not Active | Not Active | Not Active | Not Active | Not Active | Not Active | – | – | – | – | – | – | – | – | – |
| Nc1c2c(nc3ccccc13)CCCC2 [TACRINE] | Not Active | Not Active | Not Active | Not Active | Not Active | Not Active | Not Active | Not Active | Not Active | – | – | – | – | – | – | – | – | – |
| CC(C)N1CCN(c2ccc(OCC3COC(Cn4cncn4)(c4ccc(Cl)cc4Cl)O3)cc2)CC1 (stereo not drawn) [TERCONAZOLE] | Not Active | Not Active | Not Active | Not Active | Not Active | Not Active | – | Not Active | Not Active | – | – | 14.8 | 2460 | – | – | – | – | – |
| Nc1nc2nc[nH]c2c(=S)[nH]1 [THIOGUANINE] | Not Active | Not Active | Not Active | Not Active | Not Active | Not Active | Not Active | Not Active | Not Active | – | – | – | – | – | – | – | – | – |
| Cc1cccc(N(C)C(=S)Oc2ccc3ccccc3c2)c1 [TOLNAFTATE] | Not Active | Not Active | Not Active | Not Active | Not Active | Not Active | Not Active | Not Active | Not Active | – | – | – | – | – | – | – | – | – |
| NC[C@H]1CC[C@H](C(=O)O)CC1 [TRANEXAMIC ACID] | Not Active | Not Active | Not Active | Not Active | Not Active | Not Active | Not Active | Not Active | Not Active | – | – | – | – | – | – | – | – | – |
| CC1(C)O[C@@H]2C[C@H]3[C@@H]4CCC5=CC(=O)C=C[C@]5(C)[C@@]4(F)[C@@H](O)C[C@]3(C)[C@]2(C(=O)CO)O1 [TRIAMCINOLONE ACETONIDE] | Not Active | Not Active | Not Active | Not Active | Not Active | Not Active | Not Active | Not Active | Not Active | – | – | – | – | – | – | – | – | – |
| NS(=O)(=O)c1cc2c(cc1Cl)NC(C(Cl)Cl)NS2(=O)=O (stereo not drawn) [TRICHLORMETHIAZIDE] | Not Active | Not Active | Not Active | Not Active | Not Active | Not Active | Not Active | Not Active | Not Active | – | – | – | – | – | – | – | – | – |
| Cc1c(C)c2c(c(C)c1O)CCC(C)(COc1ccc(CC3SC(=O)NC3=O)cc1)O2 (stereo not drawn) [TROGLITAZONE] | Not Active | Not Active | Not Active | Not Active | Not Active | Not Active | Not Active | Not Active | Not Active | – | – | – | – | – | – | – | – | – |
| N[C@@H]1[C@H]2CN(c3nc4c(cc3F)c(=O)c(C(=O)O)cn4-c3ccc(F)cc3F)C[C@@H]12 [TROVAFLOXACIN] | Not Active | Not Active | Not Active | Not Active | Not Active | Not Active | Not Active | Not Active | Not Active | – | – | – | – | – | – | – | – | – |
| N#CC(C#N)=Cc1ccc(O)c(O)c1 [TYRPHOSTIN 23] | Not Active | Not Active | Not Active | Not Active | Not Active | Not Active | Not Active | Not Active | Not Active | – | – | – | – | – | – | – | – | – |
| CC[C@]1(O)C[C@H]2CN(CCc3c([nH]c4ccccc34)[C@@](C(=O)OC)(c3cc4c(cc3OC)N(C=O)[C@H]3[C@@](O)(C(=O)OC)[C@H](OC(C)=O)[C@]5(CC)C=CCN6CC[C@]43[C@@H]65)C2)C1 [VINCRISTINE] | Not Active | Not Active | Not Active | Not Active | Not Active | Not Active | Not Active | Not Active | Not Active | – | – | – | – | – | – | – | – | – |
| CCCOc1ccccc1-c1nc2nn[nH]c2c(=O)[nH]1 [ZAPRINAST] | Not Active | Not Active | Not Active | Not Active | Not Active | Not Active | Not Active | Not Active | Not Active | – | – | – | – | – | – | – | – | – |
| SODIUM NITROPRUSSIDE | Not Active | Not Active | Not Active | Not Active | Not Active | Not Active | Not Active | Not Active | Not Active | – | – | – | – | Not Active | Not Active | Not Active | Not Active | Not Active |
